Source: ChEMBL document CHEMBL3879915, “Methods of inhibiting PRMT5” (2014)

Columns and labels:
[1] = Antiproliferative activity against human Z138 cells assessed as inhibition of cell viability after 5 days by Cell-Titer Glo assay; type: functional, cell-based; details: Z-138, 120 h
[2] = molecular target: PRMT5/MEP50 complex (Homo sapiens, UniProt O14744); experiment: Inhibition of recombinant human fetal brain FLAG-tagged PRMT5/full length human testis 6His-tagged MEP50 expressed in baculovirus infected insect Sf9 cells using human histone H4 (1 to 15 residues) as substrate preincubated for 30 mins followed by [3H]-SAM addition
PRMT5/MEP50 complex, sequence (O14744 whole entry, the tested form may be a part): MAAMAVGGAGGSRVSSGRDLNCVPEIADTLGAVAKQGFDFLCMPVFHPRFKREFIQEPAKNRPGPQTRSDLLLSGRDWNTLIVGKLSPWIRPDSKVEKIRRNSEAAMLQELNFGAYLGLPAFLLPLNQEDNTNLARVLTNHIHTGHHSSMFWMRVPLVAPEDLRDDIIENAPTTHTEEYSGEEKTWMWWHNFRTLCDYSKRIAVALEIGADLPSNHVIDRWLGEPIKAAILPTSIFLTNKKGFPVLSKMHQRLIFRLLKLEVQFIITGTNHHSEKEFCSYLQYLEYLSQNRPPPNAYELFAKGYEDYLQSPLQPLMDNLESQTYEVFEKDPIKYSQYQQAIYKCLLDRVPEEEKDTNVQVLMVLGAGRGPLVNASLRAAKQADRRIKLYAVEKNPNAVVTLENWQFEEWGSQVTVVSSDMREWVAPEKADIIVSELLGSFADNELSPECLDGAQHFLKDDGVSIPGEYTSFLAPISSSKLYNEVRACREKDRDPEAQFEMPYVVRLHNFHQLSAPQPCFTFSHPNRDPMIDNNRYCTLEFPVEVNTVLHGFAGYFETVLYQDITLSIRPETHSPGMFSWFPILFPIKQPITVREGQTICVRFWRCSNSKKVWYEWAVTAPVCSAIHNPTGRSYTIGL
PRMT5/MEP50 complex, sequence (Q9BQA1 whole entry, further chain, the tested form may be a part): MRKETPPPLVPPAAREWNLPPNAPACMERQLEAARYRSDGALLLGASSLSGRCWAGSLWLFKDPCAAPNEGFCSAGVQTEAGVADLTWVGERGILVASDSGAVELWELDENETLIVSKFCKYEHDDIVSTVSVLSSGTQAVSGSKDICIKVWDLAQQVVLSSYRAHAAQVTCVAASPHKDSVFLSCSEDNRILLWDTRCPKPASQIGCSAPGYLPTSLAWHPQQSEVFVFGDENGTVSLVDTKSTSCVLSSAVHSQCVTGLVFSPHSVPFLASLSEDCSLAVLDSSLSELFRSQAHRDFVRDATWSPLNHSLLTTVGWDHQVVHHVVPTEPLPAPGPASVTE

[3] = molecular target: Protein arginine N-methyltransferase 5 (Homo sapiens, UniProt O14744); experiment: Inhibition of PRMT5 in human Z138 cells assessed as decrease in di-methyl arginine levels after 96 hrs by Western blot method; type: cell-based
Protein arginine N-methyltransferase 5, sequence (O14744 whole entry): as the sequence (O14744 whole entry, the tested form may be a part) above

Row | Structure (SMILES) | EC50 [1] [µM] | IC50 [2] [µM] | EC50 [3] [µM]
1 | Cn1cnc2cc(OCC(=O)NCC(O)CN3CCc4ccccc4C3)ccc21 (configuration not stated) | 10 to 50 | 0.101 to 1 | 0.101 to 1
2 | Cn1ncc2c(OCC(=O)NCC(O)CN3CCc4ccccc4C3)cccc21 (configuration not stated) | 1 to 10 | < 0.1 | < 0.1
3 | CN1CCC(n2ncc3ccc(OCC(=O)NCC(O)CN4CCc5ccccc5C4)cc32)CC1 (configuration not stated) | > 20 | < 0.1 | 0.101 to 1
4 | CS(=O)(=O)c1cccc(OCC(=O)NCC(O)CN2CCc3ccccc3C2)c1 (configuration not stated) | 1 to 10 | < 0.1 | 0.101 to 1
5 | O=C(COc1cccc(C(=O)N2CCOCC2)c1)NCC(O)CN1CCc2ccccc2C1 (configuration not stated) | 10 to 50 | 0.101 to 1 | 0.101 to 1
6 | CC(=O)N1CCc2c(cccc2OCC(=O)NCC(O)CN2CCc3ccccc3C2)C1 (configuration not stated) | 1 to 10 | < 0.1 | < 0.1
7 | O=C(COc1cccc2ccccc12)NCC(O)CN1CCc2ccccc2C1 (configuration not stated) | 1 to 10 | < 0.1 | 0.101 to 1
8 | O=C(COc1cccc2c1OCCO2)NCC(O)CN1CCc2ccccc2C1 (configuration not stated) | 1 to 10 | < 0.1 | < 0.1
9 | O=C(COc1ccccc1OCCN1CCOCC1)NC[C@H](O)CN1CCc2ccccc2C1 | 10 to 50 | < 0.1 | 0.101 to 1
10 | CN(C)S(=O)(=O)c1ccccc1OCC(=O)NCC(O)CN1CCc2ccccc2C1 (configuration not stated) | 0.101 to 1 | < 0.1 | < 0.1
11 | O=C(COc1ccccc1-c1cc[nH]n1)NC[C@@H](O)CN1CCc2ccccc2C1 | 1 to 10 | < 0.1 | < 0.1
12 | Cn1ncc2ccc(OCC(=O)NCC(O)CN3CCc4ccccc4C3)cc21 (configuration not stated) | 1 to 10 | < 0.1 | 0.101 to 1
13 | CS(=O)(=O)N1CCc2c(cccc2OCC(=O)NCC(O)CN2CCc3ccccc3C2)C1 (configuration not stated) | 1 to 10 | < 0.1 | < 0.1
14 | Cc1cccc(OCC(=O)NCC(O)CN2CCc3ccccc3C2)c1 (configuration not stated) | 1 to 10 | < 0.1 | 0.101 to 1
15 | CC(C)(Oc1cccc2cccnc12)C(=O)NCC(O)CN1CCc2ccccc2C1 (configuration not stated) | 1 to 10 | < 0.1 | 0.101 to 1
16 | O=C(COc1ccccc1C1CCCCC1)NCC(O)CN1CCc2ccccc2C1 (configuration not stated) | 1 to 10 | < 0.1 | 0.101 to 1
17 | CN1CCOc2cccc(OCC(=O)NCC(O)CN3CCc4ccccc4C3)c21 (configuration not stated) | 0.101 to 1 | < 0.1 | < 0.1

Row | Structure (SMILES) | EC50 [1] [µM] | IC50 [2] [µM] | EC50 [3] [µM]
18 | O=C(COc1cccc2ccc(N3CCOCC3)nc12)NCC(O)CN1CCc2ccccc2C1 (configuration not stated) | 10 to 50 | < 0.1 | 0.101 to 1
19 | O=C(COc1ccccc1)NC[C@H](O)CN1CCc2ccccc2C1 | 10 to 50 | 0.101 to 1 | 0.101 to 1
20 | O=C(COc1ccc2c(cnn2C2CCNC2)c1)NCC(O)CN1CCc2ccccc2C1 (configuration not stated) | 10 to 50 | < 0.1 | 0.101 to 1
21 | O=C(COc1c(CN2CCOCC2)ccc2cccnc12)NC[C@H](O)CN1CCc2ccccc2C1 | 10 to 50 | < 0.1 | 0.101 to 1
22 | C[C@H](Oc1cccc2cccnc12)C(=O)NC[C@H](O)CN1CCc2ccccc2C1 | 1 to 10 | < 0.1 | 0.101 to 1
23 | CN(C)c1ccccc1OCC(=O)NCC(O)CN1CCc2ccccc2C1 (configuration not stated) | 1 to 10 | < 0.1 | < 0.1
24 | CN1C(=O)COc2cccc(OCC(=O)NCC(O)CN3CCc4ccccc4C3)c21 (configuration not stated) | 10 to 50 | < 0.1 | 0.101 to 1
25 | CN1CCc2c(cccc2OCC(=O)NCC(O)CN2CCc3ccccc3C2)C1 (configuration not stated) | 1 to 10 | < 0.1 | 0.101 to 1
26 | CS(=O)(=O)c1ccccc1OCC(=O)NCC(O)CN1CCc2ccccc2C1 (configuration not stated) | 1 to 10 | < 0.1 | < 0.1
27 | CS(=O)(=O)N1CCN(c2ccccc2OCC(=O)NCC(O)CN2CCc3ccccc3C2)CC1 (configuration not stated) | > 20 | 0.101 to 1 | 0.101 to 1
28 | CC(=O)N1CCN(c2ccccc2OCC(=O)NCC(O)CN2CCc3ccccc3C2)CC1 (configuration not stated) | 10 to 50 | < 0.1 | 0.101 to 1
29 | O=C(COc1ccccc1-c1cc[nH]n1)NC[C@H](O)CN1CCc2ccccc2C1 | > 20 | < 0.1 | 0.101 to 1
30 | CS(=O)(=O)Nc1cccc(OCC(=O)NCC(O)CN2CCc3ccccc3C2)c1 (configuration not stated) | 1 to 10 | < 0.1 | 0.101 to 1
31 | CC(=O)Nc1ccccc1OCC(=O)NCC(O)CN1CCc2ccccc2C1 (configuration not stated) | > 20 | 0.101 to 1 | 0.101 to 1
32 | O=C(COc1ccccc1S(=O)(=O)N1CCNCC1)NCC(O)CN1CCc2ccccc2C1 (configuration not stated) | 1 to 10 | < 0.1 | < 0.1
33 | O=C(COc1cccc2c1CCNC2)NCC(O)CN1CCc2ccccc2C1 (configuration not stated) | 1 to 10 | < 0.1 | 0.101 to 1
34 | CN(C)CCOc1ccccc1OCC(=O)NC[C@H](O)CN1CCc2ccccc2C1 | 10 to 50 | < 0.1 | 0.101 to 1
